In article PMC7948418, “Genetic and biased agonist-mediated reductions in β-arrestin recruitment prolong cAMP signaling at glucagon family receptors” (The Journal of Biological Chemistry, 2020):
Square brackets hold non-standard residues; d marks the D form. Ends that are not written are not given here.

T1: GIPR (Homo sapiens, UniProt P48546)
T1 sequence (P48546 22-466): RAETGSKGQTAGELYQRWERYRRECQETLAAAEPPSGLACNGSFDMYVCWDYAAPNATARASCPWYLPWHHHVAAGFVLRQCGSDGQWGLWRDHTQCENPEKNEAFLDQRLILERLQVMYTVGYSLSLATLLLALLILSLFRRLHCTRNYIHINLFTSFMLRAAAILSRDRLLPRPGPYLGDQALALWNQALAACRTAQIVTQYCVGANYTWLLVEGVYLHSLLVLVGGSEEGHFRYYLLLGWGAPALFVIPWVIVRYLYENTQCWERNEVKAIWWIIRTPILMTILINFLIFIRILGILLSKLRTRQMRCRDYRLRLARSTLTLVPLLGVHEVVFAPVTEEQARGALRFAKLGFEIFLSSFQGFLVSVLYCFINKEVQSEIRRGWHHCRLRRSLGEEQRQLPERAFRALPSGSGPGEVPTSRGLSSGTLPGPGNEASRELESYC

T2: GIPR-SmBiT (UniProt P48546)
T2 sequence: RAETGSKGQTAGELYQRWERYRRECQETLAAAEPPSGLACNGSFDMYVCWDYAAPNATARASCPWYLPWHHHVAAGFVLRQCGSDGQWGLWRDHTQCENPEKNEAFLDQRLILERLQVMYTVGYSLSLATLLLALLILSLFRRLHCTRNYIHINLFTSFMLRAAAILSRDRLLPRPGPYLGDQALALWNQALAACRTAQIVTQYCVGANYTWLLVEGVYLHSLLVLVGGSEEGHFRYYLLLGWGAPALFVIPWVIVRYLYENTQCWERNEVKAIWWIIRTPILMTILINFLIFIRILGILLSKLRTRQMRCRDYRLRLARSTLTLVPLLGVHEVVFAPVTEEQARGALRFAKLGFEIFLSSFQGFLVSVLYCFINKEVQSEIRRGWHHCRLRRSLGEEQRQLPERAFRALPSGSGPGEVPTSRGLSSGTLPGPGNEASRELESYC


Columns and labels:
[1] = target: T3, GLP-1R (Homo sapiens, UniProt P43220); experiment: β-arrestin-2 recruitment by enzyme fragment complementation (PathHunter) CHO-GLP-1R; assay type: cell-based; settings: read-out: βarr2 Emax (% GLP-1)
T3 sequence (P43220 24-463): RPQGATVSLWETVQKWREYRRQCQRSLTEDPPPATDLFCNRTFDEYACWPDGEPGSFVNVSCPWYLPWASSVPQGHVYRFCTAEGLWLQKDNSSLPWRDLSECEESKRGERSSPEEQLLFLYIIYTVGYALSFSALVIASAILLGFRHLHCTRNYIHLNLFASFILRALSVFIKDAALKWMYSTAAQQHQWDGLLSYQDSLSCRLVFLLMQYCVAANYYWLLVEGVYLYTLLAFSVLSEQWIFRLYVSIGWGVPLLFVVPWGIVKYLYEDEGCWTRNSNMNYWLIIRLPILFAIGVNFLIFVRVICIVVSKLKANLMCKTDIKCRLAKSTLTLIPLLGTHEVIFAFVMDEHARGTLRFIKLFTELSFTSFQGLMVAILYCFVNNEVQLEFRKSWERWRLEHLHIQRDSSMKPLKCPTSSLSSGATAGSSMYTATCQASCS

[2] = target: T3, GLP-1R; experiment: cAMP response (HTRF) in PathHunter CHO-GLP-1R cells; assay type: cell-based; settings: read-out: cAMP Emax (% GLP-1)
[3] = target: T1, GIPR; experiment: β-arrestin-2 recruitment by enzyme fragment complementation (PathHunter) CHO-GIPR; assay type: cell-based; settings: for Emax: read-out: βarr2 Emax (% GIP)
[4] = target: T1, GIPR; experiment: cAMP response (HTRF) in PathHunter CHO-GIPR cells; assay type: cell-based; settings: for Emax: read-out: cAMP Emax (% GIP)
[5] = target: GLP-1R-SmBiT (UniProt P43220); experiment: split reporter (BiFC, NanoBiT); NanoBiT complementation in HEK293T cells co-transfected with receptor-SmBiT and LgBiT-tagged effector; furimazine; 37 °C; baseline 5 min, then 100 nM cognate agonist (GLP-1, GIP or GCG) or vehicle, luminescence over 30 min, normalised to baseline and vehicle
GLP-1R-SmBiT, sequence (P43220 24-463): as above

[6] = target: T2, GIPR-SmBiT; experiment: as above
[7] = target: T2, GIPR-SmBiT
[8] = target: T2, GIPR-SmBiT; remark: listed apart in the source

Molecule | EC50 [3] [nM] | Emax [3] [%] | EC50 [4] [nM] | Emax [4] [%] | other results
CC[C@H](C)[C@H](NC(=O)[C@H](Cc1ccccc1)NC(=O)[C@H](CCC(=O)O)NC(=O)[C@H](CCCCN)NC(=O)[C@H](C)NC(=O)[C@H](C)NC(=O)[C@H](CCC(N)=O)NC(=O)CNC(=O)[C@H](CCC(=O)O)NC(=O)[C@H](CC(C)C)NC(=O)[C@H](Cc1ccc(O)cc1)NC(=O)[C@H](CO)NC(=O)[C@H](CO)NC(=O)[C@@H](NC(=O)[C@H](CC(=O)O)NC(=O)[C@H](CO)NC(=O)[C@@H](NC(=O)[C@H](Cc1ccccc1)NC(=O)[C@@H](NC(=O)CNC(=O)[C@H](CCC(=O)O)NC(=O)CNC(=O)[C@@H](N)Cc1c[nH]cn1)[C@@H](C)O)[C@@H](C)O)C(C)C)C(=O)N[C@@H](C)C(=O)N[C@@H](Cc1c[nH]c2ccccc12)C(=O)N[C@@H](CC(C)C)C(=O)N[C@H](C(=O)N[C@@H](CCCCN)C(=O)NCC(=O)N[C@@H](CCCNC(=N)N)C(N)=O)C(C)C [GLP-1-Gly2] | – | – | – | – | Emax [1]: 93 ± 3%; Emax [2]: 95 ± 4%
CC[C@H](C)[C@H](NC(=O)[C@H](Cc1ccccc1)NC(=O)[C@H](CCC(=O)O)NC(=O)[C@H](CCCCN)NC(=O)[C@H](C)NC(=O)[C@H](C)NC(=O)[C@H](CCC(N)=O)NC(=O)CNC(=O)[C@H](CCC(=O)O)NC(=O)[C@H](CC(C)C)NC(=O)[C@H](Cc1ccc(O)cc1)NC(=O)[C@H](CO)NC(=O)[C@H](CO)NC(=O)[C@@H](NC(=O)[C@H](CC(=O)O)NC(=O)[C@H](CO)NC(=O)[C@@H](NC(=O)[C@H](Cc1ccccc1)NC(=O)[C@@H](NC(=O)CNC(=O)[C@@H](CCC(N)=O)NC(=O)[C@H](C)NC(=O)[C@@H](N)Cc1c[nH]cn1)[C@@H](C)O)[C@@H](C)O)C(C)C)C(=O)N[C@@H](C)C(=O)N[C@@H](Cc1c[nH]c2ccccc12)C(=O)N[C@@H](CC(C)C)C(=O)N[C@H](C(=O)N[C@@H](CCCCN)C(=O)NCC(=O)N[C@@H](CCCNC(=N)N)C(N)=O)C(C)C [GLP-1-dGln3] | – | – | – | – | Emax ([1]; 30 min at 37 °C, 4-parameter fit, mean ± SEM, n = 5): 60 ± 4%; Emax ([2]; 30-min stimulation, 37 °C, no phosphodiesterase inhibitors, 4-parameter fit, mean ± SEM, n = 5): 106 ± 5%
FAEGTFISDYSIAMDKIHQQDFVNWLLAQKGKKNDWKHNITQ [GIP-Phe1] | 1000 | 65 ± 3 | 2 | 99 ± 3 | –
LgBiT-mini-Gs | – | – | – | – | t1/2 of ligand-induced mini-Gs recruitment [5]: 1.5 min; t1/2 of ligand-induced mini-Gs recruitment [6]: 7.1 min
YA[dQ]GTFISDYSIAMDKIHQQDFVNWLLAQKGKKNDWKHNITQ [GIP-dGln3] | 316 | 23 ± 1 | 25.1 | 110 ± 4 | –
YGEGTFISDYSIAMDKIHQQDFVNWLLAQKGKKNDWKHNITQ [GIP-Gly2] | 316 | 66 ± 7 | 0.794 | 100 ± 4 | –
YAEGTFISDYSIAMDKIHQQDFVNWLLAQKGKKNDWKHNITQ [GIP(1–42)] | – | – | – | – | cytoplasmic PKA activation (AKAR4-NES FRET, AUC), Log EC50, wildtype HEK293 cells co-transfected with SNAP-GIPR [7]: -10.1 Log EC50 (M); cytoplasmic PKA activation (AKAR4-NES FRET, AUC), Log EC50, β-arrestin-1/2 knockout HEK293 cells co-transfected with SNAP-GIPR [7]: -10.9 Log EC50 (M); cAMP (HTRF), Log EC50, 10 min stimulation, wildtype HEK293 cells transiently transfected with SNAP-GIPR [8]: -9.4 Log EC50 (M); cAMP (HTRF), Log EC50, 10 min stimulation, β-arrestin-1/2 knockout HEK293 cells transiently transfected with SNAP-GIPR [8]: -9.1 Log EC50 (M); cAMP (HTRF), Log EC50, 60 min stimulation, wildtype HEK293 cells transiently transfected with SNAP-GIPR [8]: -9.6 Log EC50 (M); cAMP (HTRF), Log EC50, 60 min stimulation, β-arrestin-1/2 knockout HEK293 cells transiently transfected with SNAP-GIPR [8]: -9.7 Log EC50 (M)
